Laboratory results: patent publication US20120177698A1, “AGGREGATES WITH INCREASED DEFORMABILITY, COMPRISING AT LEAST THREE AMPHIPATS, FOR IMPROVED TRANSPORT THROUGH SEMI-PERMEABLE BARRIERS AND FOR THE NON-INVASIVE DRUG APPLICATION IN VIVO, ESPECIALLY THROUGH THE SKIN” (priority 2002, published 2012)

Test: Barrier transport resistance, simple experimental method (SEM), filtration through 0.2 micrometer filter
Assay type: physicochemical
Conditions: Examples 121-129; relative SDS concentration in SPC/Tween 80 bilayer; some uncertainty in the 2-6 mol % region
From the text: In first approximation one relies on simple experimental method (SEM) and takes barrier transport resistance (in arbitrary units) to be proportional to the pressure (in arbitrary units) needed to drive a suspension of relatively large vesicles through a 0.2 micrometer filter with good efficacy. […] Barrier penetrability, which in older publications is called permeability, is identified with inverse barrier resistance value. […] Drug Delivery Rev. 18:349-378 (1996).
Transport (pore penetration) capability. […] The trend is enhanced by the presence of sodium dodecylsulphate in the mixed lipid aggregates. The later shifts the minimum amount of Tween needed to cross the semi-permeable barrier to increasingly lower relative concentration values.
Transport ability ([…] capability and adaptability) of aggregate suspension. To characterise the resistance of semi-permeable barrier to suspension flux (=transbarrier flux), the same method as in examples 1-120 was used. The resistance was measured as a function of relative SDS concentration in bilayer, to determine minimum amount of this latter surfactant that is needed to maximise suspension flux across the barrier and minimises the barrier transport resistance value. […] This is consistent with the results of first test series (examples 1-120) except in that the measured resistance values are now somewhat higher. […]

Q: Which “threshold limit: minimum amount of SDS needed to minimise barrier transport resistance” value does the source give for `CCCCCCCCCCCCOS(=O)(=O)[O-].[Na+]` [SDS, Sodium dodecylsulphate] here?
A: The value was “around 6 mol-%”.
